Measured values: patent publication EP1206258B1, “COMPOSITIONS CONTAINING ESTERS FOR TREATING PARASITIC INFESTATIONS OF ORGANISMS” (priority 1999, dated 2001)

Assays:
mealworms, T.molibr = assay: filter paper treatment of mealworms; settings: 5 mealworms
Description: Additionally, it was also noted that Ethyl cinnamate is toxic to insects, at least mealworms, T.molibr. […] 5 mealworms were placed onto each filter paper treatment. Although all were of the same instar, the 10-1 individuals were slightly larger. […] 10-7 did die. Therefore, the size of larvae appears to be important.

Aspergillus nidulans = assay: growth inhibition test on SAB agar, A. nidulans; type: cell-based; settings: 50ml L-^1 and higher doses; further experiments, data not shown
human volunteers = settings: 24 hour closed-patch test, 25 human volunteers (Kligman 1973); cited from earlier work
Acarus siro = assay: residual filter paper bioassay on Acarus siro (Table 2a)
Description: The effect of trans-cinnamic acid ethyl ester on the mite Acarus siro was investigated using a residual filter paper bioassay. Seven samples of 0.01g of mite culture was placed on 7, 90mm Whatman™ filter papers. Each paper was previously treated with 745µl of a solution containing trans-cinnamic acid ethyl ester at concentrations varying from 74.64µl to 7.64 x 10^-4 µl/petri dish respectively and allowed to dry for 15 minutes. The controls were treated in the same way except ethanol (HPLC grade) was used as this was sample dilutant. Percentage control was calculated as in W.S. Abbot, A Method of Computing the Effectiveness of an Insecticide, Journal of Economic Entomology (1925) 18, 265-267.

Penicillium digitatum = assay: growth inhibition test on SAB agar, P. digitatum; type: cell-based; design: key to Growth of P. digitatum: - = No Growth; + = Growth; ++ = Extensive Growth
Description: The antifungal activity of ethyl trans-cinnamate against a number of different fungi was investigated by means of in a simple growth inhibition test.
The following quantities of Ethyl trans-Cinnamate were added to Sabourand Dextrose agar (SAB); 50 ml L^-1, 4ml L^-1, 2ml L^-1, 1ml L^-1, 400 µl L^-1, 200 µl L^-1 and 40 µl L^-1. […] These were then autoclaved and poured into standard Petri dishes. […] Duplicate plates of each concentration, plus control plates containing only SAB Agar, where then separately inoculated with, four different species of fungi, these were Aspergillus nidulans, Penicillium digitatum, Rhizopus arrhizus and Fusarium culmorum. Inoculation was carried out using a single stab at the centre of each Petri dish. The plates were then incubated at 30°C for 6 days and daily measurements of mycobial growth where taken every 24 hours.

Psoroptes cuniculi = assay: in vitro immersion assay on the mite Psoroptes cuniculi; settings: for mites had died: exposed for 24 hours, control 8%
Description: A series of in vitro assays were conducted to examine the effects of the compound trans-cinnamic acid ethyl ester on the mite Psoroptes cuniculi. This mite infests rabbits and is very similar to the mite Psoroptes ovis which infests sheep and causes sheep scab.
The mites were taken from the ears of infested rabbits and exposed for 24 hours to the active compound at concentrations of 10, 1 or 0.1 % (V/V). The concentrations were obtained by serial dilution of the compound in 0.05% sodium dodecyl sulphate (SDS).
This is illustrated in Figure 2 of the accompanying drawings.
The LC95 was 6.29% (95% confidence interval 4.98-8.88).
Line (1) represents adult males, line (2) adult females and (3) female nymphs.
Thus, trans-cinnamic acid ethyl ester gives greater than 50% levels of mortality within 24 hours, for all life cycle stages of P. cuniculi after short contact times (1 min) at concentrations of 2.2% (V/V). At one minute contact time, concentrations of greater than 6% (V/V) are required to bring about mortality of greater than 95%. Recent theoretical analysis using simulation modelling (Wall, unpublished) has shown that sustained mortality of greater than 50% per day is required to suppress a growing population of P. ovis.

Mouse = settings: Oral, VPITAR 33(5)48,74; cited from earlier work

## CCOC(=O)/C=C/c1ccccc1 [trans-cinnamic acid ethyl ester]
mealworms, T.molibr; concentration 10-1, slightly larger individuals, moulted after two days
  death of mealworms: did not die
mealworms, T.molibr; concentration printed 10-7
  death of mealworms: did die
Aspergillus nidulans
  duration of complete inhibition of growth: at least 8 days
Human volunteers
  sensitization: no sensitization
Acarus siro; 7.64µl/petri dish
  percentage control figure: 100%
Acarus siro; Concentration (µl) 3.20
  Mean Percentage Mortality Over Control: 95.57
Acarus siro; Concentration (µl) 3.20 x 10^1
  Mean Percentage Mortality Over Control: 100.00
Acarus siro; Concentration (µl) 3.20 x 10^-1
  Mean Percentage Mortality Over Control: 97.74
Acarus siro; Concentration (µl) 3.20 x 10^-2
  Mean Percentage Mortality Over Control: 69.51
Acarus siro; Concentration (µl) 3.20 x 10^-3
  Mean Percentage Mortality Over Control: 32.95
Acarus siro; Concentration (µl) 3.20 x 10^-4
  Mean Percentage Mortality Over Control: 6.33
Penicillium digitatum; 1ml L^-1, Day 1
  Growth of P. digitatum: -
Penicillium digitatum; 1ml L^-1, Day 2
  Growth of P. digitatum: -
Penicillium digitatum; 1ml L^-1, Day 3
  Growth of P. digitatum: -
Penicillium digitatum; 1ml L^-1, Day 4
  Growth of P. digitatum: +
Penicillium digitatum; 1ml L^-1, Day 5
  Growth of P. digitatum: +
Penicillium digitatum; 1ml L^-1, Day 6
  Growth of P. digitatum: +
Penicillium digitatum; 2ml L^-1, Day 1
  Growth of P. digitatum: -
Penicillium digitatum; 2ml L^-1, Day 2
  Growth of P. digitatum: -
Penicillium digitatum; 2ml L^-1, Day 3
  Growth of P. digitatum: -
Penicillium digitatum; 2ml L^-1, Day 4
  Growth of P. digitatum: -
Penicillium digitatum; 2ml L^-1, Day 5
  Growth of P. digitatum: -
Penicillium digitatum; 2ml L^-1, Day 6
  Growth of P. digitatum: -
Penicillium digitatum; 4ml L^-1, Day 1
  Growth of P. digitatum: -
Penicillium digitatum; 4ml L^-1, Day 2
  Growth of P. digitatum: -
Penicillium digitatum; 4ml L^-1, Day 3
  Growth of P. digitatum: -
Penicillium digitatum; 4ml L^-1, Day 4
  Growth of P. digitatum: -
Penicillium digitatum; 4ml L^-1, Day 5
  Growth of P. digitatum: -
Penicillium digitatum; 4ml L^-1, Day 6
  Growth of P. digitatum: -
Penicillium digitatum; 40µl L^-1, Day 1
  Growth of P. digitatum: -
Penicillium digitatum; 40µl L^-1, Day 2
  Growth of P. digitatum: ++
Penicillium digitatum; 40µl L^-1, Day 3
  Growth of P. digitatum: ++
Penicillium digitatum; 40µl L^-1, Day 4
  Growth of P. digitatum: ++
Penicillium digitatum; 40µl L^-1, Day 5
  Growth of P. digitatum: ++
Penicillium digitatum; 40µl L^-1, Day 6
  Growth of P. digitatum: ++
Penicillium digitatum; 50ml L-^1 and higher doses, further experiments, data not shown
  duration of complete inhibition of growth: at least 8 days
Penicillium digitatum; 50ml L-^1 level
  inhibition of growth: complete inhibition of growth
Penicillium digitatum; 50 ml L^-1, Day 1
  Growth of P. digitatum: -
Penicillium digitatum; 50 ml L^-1, Day 2
  Growth of P. digitatum: -
Penicillium digitatum; 50 ml L^-1, Day 3
  Growth of P. digitatum: -
Penicillium digitatum; 50 ml L^-1, Day 4
  Growth of P. digitatum: -
Penicillium digitatum; 50 ml L^-1, Day 5
  Growth of P. digitatum: -
Penicillium digitatum; 50 ml L^-1, Day 6
  Growth of P. digitatum: -
Penicillium digitatum; 200µl L^-1, Day 1
  Growth of P. digitatum: -
Penicillium digitatum; 200µl L^-1, Day 2
  Growth of P. digitatum: ++
Penicillium digitatum; 200µl L^-1, Day 3
  Growth of P. digitatum: ++
Penicillium digitatum; 200µl L^-1, Day 4
  Growth of P. digitatum: ++
Penicillium digitatum; 200µl L^-1, Day 5
  Growth of P. digitatum: ++
Penicillium digitatum; 200µl L^-1, Day 6
  Growth of P. digitatum: ++
Penicillium digitatum; 400µl L^-1, Day 1
  Growth of P. digitatum: -
Penicillium digitatum; 400µl L^-1, Day 2
  Growth of P. digitatum: +
Penicillium digitatum; 400µl L^-1, Day 3
  Growth of P. digitatum: ++
Penicillium digitatum; 400µl L^-1, Day 4
  Growth of P. digitatum: ++
Penicillium digitatum; 400µl L^-1, Day 5
  Growth of P. digitatum: ++
Penicillium digitatum; 400µl L^-1, Day 6
  Growth of P. digitatum: ++
Psoroptes cuniculi; 0.1% (V/V), same as control (0.05% SDS only)
  LT50: approximately 2.5 days
Psoroptes cuniculi; 24 hours after exposure
  LD 25 Concentration (% V/V): 0.53 % V/V
  LD 50 Concentration (% V/V) (LC50): 2.21 % V/V
  LD 75 Concentration (% V/V): 3.88 % V/V
  LD 95 Concentration (% V/V) (LC95): 6.29 % V/V
Psoroptes cuniculi; concentration 1%
  50% mortality (LT50): 1 days
Psoroptes cuniculi; concentration 10%
  50% mortality (LT50): 0.5 days
Psoroptes cuniculi; 0.1 % (V/V) in 0.05% SDS
  mites had died: 20%
Psoroptes cuniculi; 1 % (V/V) in 0.05% SDS
  mites had died: 74%
Psoroptes cuniculi; 10 % (V/V) in 0.05% SDS
  mites had died: 100%
Psoroptes cuniculi; one minute contact time
  concentrations required to bring about mortality of greater than 95%: greater than 6 % (V/V)
Psoroptes cuniculi; within 24 hours, all life cycle stages, contact time 1 min, 2.2% (V/V)
  levels of mortality: greater than 50%
Mouse
  LDSO: 4000 mg/kg
